Columns and labels:
[1] = Estimated solubility and discolouration of penethamate in organic solvents; assay type: physicochemical; details: Solketal, propylene glycol, glycerol formal and DGMEE
Description: Solubility of penethamate was estimated at the concentrations of 0.2% w/w and 1.0% w/w, in the following solvents: glycerine, Solketal, polyethylene glycol 200 (PEG 200), diethylene glycol butyl ether (DGBE), propylene glycol (PG), glycofural, diethylene glycol monomethyl ether (DGME), diethylene glycol methyl ethyl ether (DGMEE), dimethyl isosorbide (DMI), 2-pyrrolidone (2-pyrol), N-methyl-2-pyrrolidone (NMP), dimethyl acetamide (DMA), glycerol formal (GF), benzyl alcohol (BA), ethyl lactate and dimethyl sulfoxide (DMSO).

[2] = following injection, equivalent dose; cited from earlier work

- discolouration in organic solvent ([1]; 0.2% w/w and 1.0% w/w in glycerine): no discolouration
- solubility in organic solvent ([1]; estimated at 0.2% w/w and 1.0% w/w in glycerine): minimal solubility
SMILES: CCN(CC)CCOC(=O)[C@@H]1N2C(=O)[C@@H](NC(=O)Cc3ccccc3)[C@H]2SC1(C)C [penethamate hydriodide, 2-(diethylamino)ethyl (2S,5R,6R)-3,3-dimethyl-7-oxo-6-[(2-phenylacetyl)amino]-4-thia-1-azabicyclo[3.2.0] heptane-2-carboxylate]
- levels of penicillin in the milk relative to other benzyl-penicillin preparations [2]: about 10 times higher
